Values joined by “and” are separate entries in the source; they are usually repeats but may differ in a detail not shown here. Equal entries are not always repeated. Marks after values point to notes of the source that are not given here. Ends that are not written are not given here.
Assay: ThT assay lag-time (fibrillation propensity, physical stability)
Format: physicochemical
Description: ThT is widely used to visualize and quantify the presence of misfolded peptide and protein aggregates called amyloids or fibrils. ThT is a fluorescent molecule that binds to inter molecular beta-sheets in peptides and proteins (here AnxA1). […] A weaker fluorescence intensity is indicative of less amyloids or fibrils present with fewer intermolecular beta-sheets where ThT can bind. Some peptides have a tendency to form fibrils and amyloids and the propensity is dependent on the formulation conditions in an unpredictable manor. Fibrillation is a stochastic process and to avoid long analysis times and both false negatives and positive results, shear stress is introduced to the sample by rigorous rotation in microtiter plates while continuously monitoring the fluorescence emission at approximately 486 nm. An increase in the fluorescence is an indication of the formation of amyloids or fibrils and the time it takes for the fluorescence to start increasing is known as the lag-time. A faster (short) lag-time is an indication of higher propensity for the peptide to degrade by formation of fibrils or amyloids. A ThT fluorescence of 50 AU at t=0 is considered noise or background. Lag time is reported as the time it takes for the signal intensity to exceed 50 AU. All samples for the ThT assay were filtered through cellulose acetate filters ([…], Ø=13 mm, rinsed with MilliQ® water prior to filtration). For each sample, 20 μL ThT of a 1 mM solution was added to 1 mL peptide solution. From this sample mixture, 200 μL was transferred into n wells in a 96 well microtiter plate (n=3-6). 96-well NUNC plates Bottom optics and Sealing tape, Thermo Scientific™ Nunc™ Sealing Tapes, was used. Lag-time is reported as an average of n samples. A fluorescence plate reader (CLARIOstar® Plus, BMG Labtech) was used for the experiments with the following setting: Excitation wavelength 450 nm; Dichroic filter 465 nm; Emission wavelength 486 nm; Focal height 3.5 mm; Gain 1000; […]; […]; Number of flashes per well 20; Temperature 25° C.; Shake mode orbital, Frequency of 300 rpm, 200 s, and shake after each cycle. If possible, the average of all ThT data replicates are used for ThT lag-time determination. In case of very stochastic data, worst-case data is used for lag-time evaluation. ThT lag-time was determined using either a 1-step or 2-step sigmoidal curve.

lag-time (10 mM tris, pH 7.5, AnxA1 1.7 mg/mL containing 5% mannitol or sorbitol): > 65 h
Lag-time (AnxA1 1.4 mg/mL, mannitol 4 wt.%, sucrose 2.5 wt.%, glycyl-glycine 50 mM, pH 8.5): >65 h
Lag-time (AnxA1 1.4 mg/mL, sucrose 10 wt.%, glycyl-glycine 50 mM, pH 8.5): >65 h
Avg. lag-time (AnxA1 1.5 mg/mL, NaCl 0.9%, ZnCl2 0.77 mM, pH N/A): 1.8 h
Avg-lag time (AnxA1 1.5 mg/mL, glucose 5 wt.%, pH 7.1): 21.7 h
Lag-time (AnxA1 1.5 mg/mL, mannitol 4 wt.%, sucrose 2.5 wt.%, glycyl-glycine 10 mM, pH 7.5): >65 h
Lag-time (AnxA1 1.5 mg/mL, mannitol 4 wt.%, sucrose 2.5 wt.%, glycyl-glycine 50 mM, pH 7.6): >65 h
Lag-time (AnxA1 1.5 mg/mL, mannitol 5 wt.%, glycyl-glycine 10 mM, pH 7.4, analysis timeframe 65 hours): >65* hours
Lag-time (AnxA1 1.5 mg/mL, mannitol 5 wt.%, glycyl-glycine 50 mM, pH 7.5): >65 h
Lag-time (AnxA1 1.5 mg/mL, sucrose 10 wt.%, Tris 10 mM, pH 7.5): 42.8 h
Lag-time (AnxA1 1.5 mg/mL, sucrose 10 wt.%, glycyl-glycine 10 mM, pH 8.3): >65 h
Avg. lag-time (AnxA1 1.6 mg/mL in Milli Q water, no salt, pH 7.5, maximum assay time 50 hours): >50.0* h
Avg. lag-time (AnxA1 1.6 mg/mL in Milli Q water, no salt, pH 7.6, maximum assay time 50 hours): >50.0* h
Avg. lag-time (AnxA1 1.6 mg/mL, 0.9% NaCl in Milli Q water, pH 7.1): 28.3 h
Avg. lag-time (AnxA1 1.6 mg/mL, CaCl2 0.77 mM, pH 7.2): 12.5 h
Avg. lag-time (AnxA1 1.6 mg/mL, CaCl2 0.77 mM, pH 7.4): 10.8 h
Avg. lag-time (AnxA1 1.6 mg/mL, NaCl 0.9%, CaCl2 0.77 mM, pH 7.1): 5.4 h
Lag-time (AnxA1 1.6 mg/mL, mannitol 4 wt.%, sucrose 2.5 wt.%, glycyl-glycine 10 mM, pH 8.4): >65 h
Lag-time (AnxA1 1.6 mg/mL, mannitol 5 wt.%, glycyl-glycine printed as 'e' mM, pH 8.3): >65 h
Lag-time (AnxA1 1.6 mg/mL, mannitol 5 wt.%, glycylglycine 10 mM, pH 8.0, no increase in fluorescence within 65 hours): > 65* hours
Avg-lag time (AnxA1 1.6 mg/mL, mannitol 5 wt.%, pH 6.7, no increase in fluorescence within 65 hours): > 65* h
Lag-time (AnxA1 1.6 mg/mL, sucrose 10 wt.%, glycyl-glycine 50 mM, pH 7.6): 64.7 h
Lag-time (AnxA1 1.6 mg/mL, sucrose 10 wt.%, glycylglycine 10 mM, pH 8.0, no increase in fluorescence within 65 hours): > 65* hours
Avg-lag time (AnxA1 1.6 mg/mL, sucrose 10 wt.%, pH 7.2, no increase in fluorescence within 65 hours): > 65* h
Avg-lag time (AnxA1 1.6 mg/mL, trehalose 10 wt.%, pH 7.2): 33.3 h
Avg. lag-time (AnxA1 1.7 mg/mL in Milli-Q water, pH 7.4, no increase in fluorescence within 65 hours): > 65* h
Lag-time (AnxA1 1.7 mg/mL, mannitol 5 wt.%, Tris 10 mM, pH 7.5, no increase in fluorescence within 65 hours): > 65* hours
Lag-time (AnxA1 1.7 mg/mL, sorbitol 5 wt.%, Tris 10 mM, pH 7.6, no increase in fluorescence within 65 hours): > 65* hours
Lag-time (AnxA1 1.7 mg/mL, sorbitol 5 wt.%, glycylglycine 10 mM, pH 8.0, no increase in fluorescence within 65 hours): > 65* hours
Avg. lag-time (AnxA1 3.1 mg/mL in Milli-Q water, pH 7.4): 50.4 h
Lag-time (AnxA1 3.1 mg/mL, mannitol 5 wt.%, glycylglycine 10 mM, pH 8.0, no increase in fluorescence within 65 hours): > 65* hours
Avg. lag-time (AnxA1 3.2 mg/mL in Saline (0.9% NaCl), pH 7.4): 5.6 h
Avg. lag-time (AnxA1 3.2 mg/mL, 0.9% NaCl in Milli Q water, pH 7.4): 9.3 h
Avg. lag-time (AnxA1 3.2 mg/mL, NaCl 0.9%, pH 7.2): 9.7 h
Lag-time (AnxA1 3.2 mg/mL, mannitol 5 wt.%, glycylglycine 10 mM, pH 8.0, no increase in fluorescence within 65 hours): > 65* hours
Lag-time (AnxA1 3.3 mg/mL, mannitol 5 wt.%, glycylglycine 10 mM, pH 8.0, no increase in fluorescence within 65 hours): > 65* hours
Lag-time (AnxA1 4.0 mg/mL, mannitol 5 wt.%, glycyl-glycine 10 mM, pH 8.2): >65 h
Lag-time (AnxA1 4 mg/mL, tonicity 100%, NaCl 0.9 wt%, positive control sample in 0.9% saline): 8.2* hours
Avg. lag-time (AnxA1 4.6 mg/mL in Milli-Q water, pH 7.4): 61.4 h
Lag-time (AnxA1 4.6 mg/mL, sorbitol 5 wt.%, glycylglycine 10 mM, pH 8.0, no increase in fluorescence within 65 hours): > 65* hours
Lag-time (AnxA1 4.6 mg/mL, sucrose 10 wt.%, glycyl-glycine 30 mM, pH 8.0): 39 h
Lag-time (AnxA1 4.7 mg/mL, mannitol 5 wt.%, Tris 10 mM, pH 7.5): 10.7 h
Lag-time (AnxA1 4.7 mg/mL, mannitol 5 wt.%, glycylglycine 10 mM, pH 8.0, no increase in fluorescence within 65 hours): > 65* hours
Lag-time (AnxA1 4.7 mg/mL, sorbitol 5 wt.%, Tris 10 mM, pH 7.5): 10.8 h
Lag-time (AnxA1 4.7 mg/mL, sucrose 10 wt.%, Tris 10 mM, pH 7.5): 11.1 h
Lag-time (AnxA1 4.7 mg/mL, sucrose 10 wt.%, glycyl-glycine 30 mM, pH 8.0 (two samples)): >65 h and 50 h
Substance: AMVSEFLKQAWFIENEEQEYVQTLKSSKGGPGSAVSPYPTFNPSSDV-NH2 [AnxA1]
fibrillation in ThT assay (6.4 mg/mL, possibly 5.0 mg/ml, and above, 0.9% NaCl): already degraded by the formation of fibrils at time zero

— patent US20240041977A1, “ANNEXIN A1 N-TERMINAL PEPTIDE FORMULATIONS AND METHODS” (ResoTher Pharma A/S, priority 2020, published 2024)
